The source of these data is publication PMC8838585, “Development and Validation of a Novel HPLC Method to Analyse Metabolic Reaction Products Catalysed by the CYP3A2 Isoform: In Vitro Inhibition of CYP3A2 Enzyme Activity by Aspirin (Drugs Often Used Together in COVID-19 Treatment)” (Molecules, 2022).

Entries after “also recorded” stand apart in the source; their conditions may differ.

A short description of data set [1]: Solution stability of working standards at ambient temperature, intraday and interday, HPLC. It counts as physicochemical. The settings on record: for Solution stability: intraday and interday analysis. The protocol:
Stability samples were analyzed in triplicate.
Experiments were performed in triplicate, and the results are summarized below in Table 8.

In data set [2] the target is T1, CYP3A2 (Rattus norvegicus, UniProt P05183).
T1 construct: tissue Merck; host or cells: pooled liver microsomes from male Sprague Dawley rats
T1 sequence (P05183 1-504): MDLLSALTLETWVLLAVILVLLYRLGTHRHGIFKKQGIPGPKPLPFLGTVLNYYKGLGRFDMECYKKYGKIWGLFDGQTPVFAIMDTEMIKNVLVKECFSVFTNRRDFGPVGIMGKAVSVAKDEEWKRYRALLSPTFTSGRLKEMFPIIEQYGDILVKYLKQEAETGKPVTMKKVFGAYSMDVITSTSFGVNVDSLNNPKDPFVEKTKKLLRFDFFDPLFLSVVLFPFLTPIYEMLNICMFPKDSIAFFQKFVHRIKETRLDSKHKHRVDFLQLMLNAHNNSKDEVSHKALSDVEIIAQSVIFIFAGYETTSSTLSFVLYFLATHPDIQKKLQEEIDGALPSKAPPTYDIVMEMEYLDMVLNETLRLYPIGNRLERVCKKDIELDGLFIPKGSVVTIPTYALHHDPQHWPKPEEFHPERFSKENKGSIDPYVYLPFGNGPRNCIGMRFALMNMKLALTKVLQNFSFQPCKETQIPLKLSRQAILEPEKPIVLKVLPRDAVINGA
The experiment in a line: Inhibition of dexamethasone 6β-hydroxylation (CYP3A2 activity) by aspirin in rat liver microsomes, HPLC. It counts as in vitro ADME. The settings on record: for Clint: Vmax/Km; for Vmax: n = 3. As to the method: Assay development and validation were carried out using a LC-2010A HT Module HPLC system (Shimadzu, Toyko, Japan). […] The chromatographic separation was performed at 25 °C and at a flow rate of 0.6 mL/min. A 10 µL solution volume was injected for HPLC analysis, and all the components were detected at the 243 nm wavelength. Table 11 provides information concerning efficiency (N), where N = 5.54 × (tR/W½) and W½ = width at half peak height; plate height (H), where H(cm) = column length/N; asymmetry factor (AsF), where AsF = B/A, and A is the distance from the leading edge of the peak to the midpoint of the peak measured at 10% of peak height, and B is the distance from the midpoint of the peak to the trailing edge of the peak measured at 10% of the peak height; and resolution (Rs), where Rs = 2∆tR/0.5(W1 + W2), and W is the width at the peak base.
Ice-cold-grade acetonitrile containing 15 µM 4-hydroxyoctanophenone (as an internal standard) was added to terminate the reaction. […] The polar extracts were evaporated to dryness, and the residues were dissolved in the mobile phase (70% acetonitrile and 30% water, v/v) and made up to 1000 µL in volume. An amount of 10 µL of each sample was injected into the HPLC instrument for analysis.
Data were analysed using Microsoft Excel 2010 software for validation and the kinetic parameters. All results are shown as mean ± S.D. The least-square regression analysis was performed to calculate the concentration of the metabolite produced by the CYP reaction. Secondary Lineweaver–Burk plots and Michaelis–Menten plots were plotted to find kinetic parameters such as Ki, Vmax, Km, Clint, and α^,. Inhibition was assumed to be competitive based on the obtained data and based on a visual inspection of the Lineweaver–Burk plot. […] Km values were used to calculate the percentage of inhibition.

Substrate in data set [3]: C[C@@H]1C[C@H]2[C@@H]3CCC4=CC(=O)C=C[C@]4(C)[C@@]3(F)[C@@H](O)C[C@]2(C)[C@@]1(O)C(=O)CO
The experiment in a line: cells, lysate or membranes named. The settings on record: other: 0 µM aspirin (no inhibitor), rat liver microsomes 0.5 mg/mL, n = 3; pH 7.4; 37.0 °C. A general note: Liver microsomes are vesicles of endoplasmic reticulum, rich in cytochrome P450 enzymes.

Where [4] appears, read: male, rat, liver microsomes, pH 7.4, probe dexamethasone (6β-hydroxylation), 10, 20, 30, 40 and 50 µM.

With `C[C@@H]1C[C@H]2[C@@H]3C[C@@H](O)C4=CC(=O)C=C[C@]4(C)[C@@]3(F)[C@@H](O)C[C@]2(C)[C@@]1(O)C(=O)CO` [6β-hydroxydexamethasone, 6β-Hydroxydexamethasone], the “% Recovery” value in data set [1] (Interday 1, 0.3 µM) came out at 89.49%; in data set [1] (Interday 1, 0.5 µM) it was 92.64%; in data set [1] (Interday 1, 0.85 µM), 84.06%; in data set [1] (Interday 2, 0.3 µM) it was 105.46%; in data set [1] (Interday 2, 0.5 µM), 94.15%; in data set [1] (Interday 2, 0.85 µM), 81.57%. Also, the “% Recovery” value in data set [1] (Interday 3, 0.3 µM) stood at 106.90%; in data set [1] (Interday 3, 0.5 µM) it was 92.10%; in data set [1] (Interday 3, 0.85 µM), 80.51%; in data set [1] (intraday 0 h, 0.3 µM) it was 98.18%; in data set [1] (intraday 0 h, 0.5 µM), 94.82%; in data set [1] (intraday 0 h, 0.85 µM), 99.34%. Moreover, the “% Recovery” value is recorded as 97.22% in data set [1] (intraday 5 h, 0.3 µM); 87.58% in data set [1] (intraday 5 h, 0.5 µM); 90.45% in data set [1] (intraday 5 h, 0.85 µM); 88.89% in data set [1] (intraday 10 h, 0.3 µM); 87.75% in data set [1] (intraday 10 h, 0.5 µM); 92.98% in data set [1] (intraday 10 h, 0.85 µM). In addition, the Solution stability entry in data set [1] is reported as “stable”.
Usually IC50 stands for the point on the concentration scale where inhibition reaches its midpoint. For orientation: inhibition means the relative decrease from the control value, in per cent. A lower inhibition goes with little suppression. Usually Ki stands for the equilibrium dissociation constant of an inhibitor or competing ligand from its target. With `CC(=O)Oc1ccccc1C(=O)O` [Aspirin, acetylsalicylic acid], the IC50 in data set [2] was found to be 191 µM. The á in data set [2] (50 µM aspirin) is 1.03 ± 0.01; in data set [2] (100 µM aspirin), 1.02 ± 0.06; in data set [2] (200 µM aspirin) it was 1.04 ± 0.01. For the same molecule, the “Mode of inhibition of CYP3A2” value in data set [2] (Lineweaver-Burk plot, rat liver microsomes) is recorded as “competitively inhibits; also recorded: competitive inhibitor”. Besides, the Clint is listed as 0.0005 ± 4.00 × 10^−6 µM^−2∙min^−1 in data set [2] (with 50 µM aspirin), 0.0005 ± 5.00 × 10^−5 µM^−2∙min^−1 in data set [2] (with 100 µM aspirin) and 0.0004 ± 1.00 × 10^−5 µM^−2∙min^−1 in data set [2] (with 200 µM aspirin). Besides, in data set [2] (aspirin 50, 100 and 200 µM), the “Alpha prime (α') values” was “greater than 1.0”. This molecule gave an inhibition at 40 min, 50 µM in data set [2] (setting [4]) of 12.4 ± 1.2%. The molecule further came in with an inhibition at 40 min, 100 µM in data set [2] (setting [4]) of 23.3 ± 3.3%. Besides, the inhibition at 40 min, 200 µM in data set [2] (setting [4]) was 53.6 ± 1.76%. For the same molecule, the inhibition constant (Ki) in data set [2] (read-out: Ki (inhibition constant)) is 95.5 µM. The “Strength of inhibition of CYP3A2 isoform activity” value in data set [2] (weak if IC50 more than 50 µM) is on record as “weak inhibitory effect”. Also, the figures for the Vmax in data set [2] (with 50 µM aspirin), in data set [2] (with 100 µM aspirin) and in data set [2] (with 200 µM aspirin) were 0.0123 ± 1.15 × 10^−4 µM^−1∙min^−1, 0.0127 ± 7.94 × 10^−4 µM^−1∙min^−1 and 0.0123 ± 1.73 × 10^−4 µM^−1∙min^−1, respectively.
Regarding `C[C@@H]1C[C@H]2[C@@H]3CCC4=CC(=O)C=C[C@]4(C)[C@@]3(F)[C@@H](O)C[C@]2(C)[C@@]1(O)C(=O)CO` [Dexamethasone], the “% Recovery” value in data set [1] (Interday 1, 40 µM) is reported as 80.04%; in data set [1] (Interday 1, 110 µM) it was 85.81%; in data set [1] (Interday 1, 185 µM), 98.26%; in data set [1] (Interday 2, 40 µM) it was 87.31%; in data set [1] (Interday 2, 110 µM), 91.30%; in data set [1] (Interday 2, 185 µM), 104.78%. The “% Recovery” value in data set [1] (Interday 3, 40 µM) is given as 85.29%; in data set [1] (Interday 3, 110 µM), 82.36%; in data set [1] (Interday 3, 185 µM), 101.20%; in data set [1] (intraday 0 h, 40 µM), 88.51%; in data set [1] (intraday 0 h, 110 µM) it was 80.58%; in data set [1] (intraday 0 h, 185 µM), 95.66%. Further, the “% Recovery” value in data set [1] (intraday 5 h, 40 µM) stood at 80.50%; in data set [1] (intraday 5 h, 110 µM), 84.03%; in data set [1] (intraday 5 h, 185 µM) it was 109.49%; in data set [1] (intraday 10 h, 40 µM), 80.80%; in data set [1] (intraday 10 h, 110 µM), 84.43%; in data set [1] (intraday 10 h, 185 µM) it was 110.03%. In addition, in data set [1], the Solution stability entry is “stable for up to three days”.

B1: CYP3A2 (Rattus norvegicus) (protein)
chain: T1 sequence (P05183 1-504)
In general, Km refers to the substrate concentration at which the rate is half of its maximum. Regarding B1, the Km in data set [3] was found to be 21.23 ± 0.51 µM.
